The values that follow come from US9956200B2, “Compositions comprising dihydroquercetin for use in methods for treating the effects associated with skin inflammatory disorders” (BIONOOX SUISSE SA, priority 2014, dated 2018).

Holding throughout (type): cell-based
Assay [1] deals with neutrophils triggered by fMLP. Briefly: ROS production by luminol chemiluminescence, neutrophils triggered by fMLP. The note with it: fMLP 10^−6 M; DHQ 1, 10 or 100 μM, concentration per sample not given. How it is done:
Neutrophils (5×10^5) are suspended in 0.5 mL of Hanks balanced salt solution containing 10 μM luminol at 37° C. The cells are then stimulated with 10^−6M fMLF (N-formylmethionyl-leucyl-phenylalanine). Chemiluminescence is recorded with a luminometer (Berthold-Biolumat LB937). Similarly, neutrophils were triggered by fMLP (10^−6 M) in the presence of different concentrations of DHQ (0, 1, 10 and 100 μM) at 37° C. in Hanks buffer containing 10 μM luminol and chemiluminescence was measured by a chemiluminometer. Total chemiluminescence counts during 22.21 min. (integrals) corresponding to total ROS production were determined.

The test system of assay [2] is polymorphonuclear neutrophils. Briefly: Oxygen consumption of polymorphonuclear neutrophils triggered by PMA and fMLP. The note with it: data not shown.
The subject of another assay is human mast cells. Briefly: Mast cell degranulation (beta-hexosaminidase release) induced by IgE then anti-IgE. The note with it: versus kinase inhibitors and chromoglycate (reference molecule). The text has this: Pure populations of human mast cells (HMC) are obtained by long-term culture of human normal hematopoietic progenitors (CD34^+ cells) in the continuous presence of Stem Cell Factor (SCF). Sources of these CD34^+ cells are mainly bone marrow, cord blood or peripheral blood. Usually, mononuclear cells from bone marrow and cord blood contain 0.5-1% of CD34^+ cells, whereas peripheral blood contains less than 0.1% of CD34^+ cells. Hematopoietic progenitor cells can be rapidly and efficiently enriched to a purity of about 85-98% using positive selection of magnetically labeled CD34^+ cells. Hematopoietic progenitor cells are then magnetically labeled using MACS CD34 MicroBeads. The magnetically labeled cells are enriched on positive selection columns in the magnetic field. Mononuclear cells from peripheral blood (PBMC), cord blood, or bone marrow may otherwise be obtained by density gradient centrifugation over Ficoll Paque®. Fractionation methods for producing mast cells are described in the art (see for instance Arock et al., 2008, Methods in Molecular biology 415: 241-254). Mast cell degranulation was induced by sequential treatment of mast cell by IgE, then by anti-IgE antibodies. Degranulation was subsequently measured by evaluating the release of beta-hexosaminidase, 1 h after IgE stimulation (see FIG. 4).

“And” between values parts separate entries of the source, which are not always exact repeats. Equal values may be shown once.

As for `O=C1c2c(O)cc(O)cc2OC(c2ccc(O)c(O)c2)C1O` (stereo not shown) [DHQ], in assay [1], the “T.half (fall)” value was 3.78 and 3.55; the “T.half (rise)” value was determined as 1.55. The “effect on oxygen consumption of polymorphonuclear neutrophils” value in assay [2] is on record as “strongly inhibits”. Also, the “inhibitory activity on mast cell degranulation compared with reference molecules” value with human mast cells was “superior to kinase inhibitors and chromoglycate”.
